Bridge positions count the residues as written; N and C are the ends. Peptide text beside a SMILES is read from it.
Tested on: complement system
Assay: Preliminary ELISA-based complement system inhibition assays, human serum
Assay type: biochemical
Conditions: preliminary data
Source text: For some of the peptides studied here, W1, W13, R1, and S-1S0, there is experimental evidence for inhibitory activity against hC3. […] The structural rationale was that the positively charged backbone amino group was disrupting the hydrophobic cluster at the termini (spanning residues 11-C2-V3-V4/C12/T13 of native compstatin), which was deemed necessary for binding and activity before the availability of the structure of the C3c-W4A9 complex, and that upon removal of the positive charge by acetylation the hydrophobic cluster was fortified and contributed to the 3-fold increase in activity. […] The peptide with the diserine extension is expected to be active, as the diserine was present at the N-terminus of the original 32-amino acid peptide that was identified in the phage-display and a subsequent study.

With `CC(=O)N[C@@H](CCCNC(=N)N)C(=O)N[C@H]1CSSC[C@@H](C(=O)N[C@H](C(N)=O)[C@@H](C)O)NC(=O)[C@H](CCCNC(=N)N)NC(=O)[C@H](Cc2c[nH]cn2)NC(=O)[C@H](C)NC(=O)CNC(=O)[C@H](Cc2c[nH]c3ccccc23)NC(=O)[C@H](CC(=O)O)NC(=O)[C@H](CCC(N)=O)NC(=O)[C@H](Cc2c[nH]c3ccccc23)NC(=O)[C@H](C(C)C)NC1=O` [Peptide I, Ac- RCV WQDWGA HRCT-NH2] (Ac-RCVWQDWGAHRCT-NH2; disulfide 2-12) the “inhibitory activity in human serum (in words)” value was “higher than those of native compstatin and slightly lower than those of the W4A9 analog”.
